# Measurements published in patent US20150322082A1, “NOVEL COMPOUNDS AS DIACYLGLYCEROL ACYLTRANSFERASE INHIBITORS” (GLAXOSMITHKLINE LLC, priority 2012, published 2015).
# Like-named read-outs stand apart in the source and are kept apart here.
# Experiments:
# [1] = Pharmacokinetic assay in rats (Rat IV and PO PK); format: in vivo; conditions: male, Crl:CD (SD), plasma; for bioavailability: 2 mg/kg, absolute oral bioavailability from oral and intravenous AUC0-inf, normalized for dose, read-out: Rat % F
# Procedure: Pharmacokinetic Assay in Rats (Rat IV and PO PK)
# Male Crl:CD (SD) rats were housed individually in cages with clean bedding in a controlled environment (22 to 25° C. temperature, humidity of 30-70% RH, and a 12 hour light/12 hour dark cycle). Certified rodent diet was provided ad libitum to the rats. Rats were fasted overnight 14-16 hours prior to the dosing on each study day and fed approximately 4 hours post dose (following collection of the 4 hour blood sample). Water was available ad libitum. Normal healthy rats certified by the attending veterinarian were selected and acclimatized for a minimum of three days prior to initiation of the study. Rats were randomized according to the body weight and were identified with body markings.
# Intravenous formulation of 1 mg/mL concentration was prepared in DMA (N,N-Dimethylacetamide):TEG (Tetraethylene glycol): Water for Injection (20:40:40) freshly on study day. Animals were dosed through tail vein to achieve a target dose of 1 mg/kg. Oral suspension at a target concentration of 2 mg/mL was prepared freshly in Tween 80 (2%) and 0.5% MC (Methylcellulose) (2:98) on the study day. Animals in the intravenous dosing group were dosed through tail vein to achieve a target dose of 1 mg/kg, and the animals in oral dosing group were dosed orally by an oral gavage needle to achieve a target dose of 2 mg/kg. The actual dose volume was based on the body weight obtained on the study day. On the study day, blood samples (approx. 300 μL/time point) were collected at 0.083, 0.25, 0.5, 1, 2, 4, 8 and 24 hours after intravenous bolus dose, and 0.25, 0.5, 1, 2, 4, 8 and 24 hours after dosing of oral gavage and transferred to a pre-labeled K2EDTA coated tubes. Blood volume was replaced with administration of equal volume of saline through the jugular vein. After collection of blood samples at each time point, the blood samples were stored immediately on ice, in chilled Cryoracks and centrifuged at 2320 g at 4° C. for 15 minutes. The plasma was separated and transferred to pre-labeled micro-centrifuge tubes and promptly frozen at −80+10° C. until bioanalysis.
# The plasma concentrations were determined by using a fit for purpose analytical method based on protein precipitation, followed by LC-MS/MS analysis. Analyst Version 1.5.1 software was used to acquire and quantify data. Pharmacokinetic analysis of plasma concentration-time data was performed by a non-compartmental method using Pheonix WinNonLin™ (WLN) Version 6.3.
# The area under the plasma concentration-time curve (AUC) from the time of dosing to the last quantifiable time point (AUC0-1) was determined by WLN using linear logarithmic trapezoidal rule. Terminal half life (T1/2) was determined by WLN using linear logarithmic trapezoidal rule for plasma concentrations following intravenous administration. The Absolute oral bioavailability (% F) was calculated by mathematical comparison of oral and intravenous AUC0-inf, normalized for dose.
# Human DGAT1 = molecular target: T1, Human DGAT1 (Homo sapiens, UniProt O75907); experiment: Human DGAT1 lipid extraction (LE) assay, inhibition of triacylglycerol product formation; format: biochemical; conditions: human DGAT1 microsomes from Sf9 cells, read-out: hDGAT LE IC50
# T1 construct: made in house; host or cells: Sf9 insect cells (baculovirus); microsomes
# T1 sequence (O75907 1-488): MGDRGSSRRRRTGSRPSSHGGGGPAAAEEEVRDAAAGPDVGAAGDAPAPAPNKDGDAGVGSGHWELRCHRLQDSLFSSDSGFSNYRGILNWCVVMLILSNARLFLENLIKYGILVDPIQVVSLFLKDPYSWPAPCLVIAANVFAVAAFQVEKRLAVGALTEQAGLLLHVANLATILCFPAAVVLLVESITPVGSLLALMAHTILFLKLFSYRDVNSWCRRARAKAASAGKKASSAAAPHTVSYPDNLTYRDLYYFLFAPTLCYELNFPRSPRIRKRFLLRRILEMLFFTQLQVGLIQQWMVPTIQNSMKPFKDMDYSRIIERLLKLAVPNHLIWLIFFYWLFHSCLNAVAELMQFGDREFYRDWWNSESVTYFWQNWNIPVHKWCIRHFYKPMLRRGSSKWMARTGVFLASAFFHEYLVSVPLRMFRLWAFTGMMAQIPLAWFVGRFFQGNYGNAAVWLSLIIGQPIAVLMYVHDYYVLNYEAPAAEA
# Procedure: Human DGAT1 was expressed in Sf9 insect cells using a baculovirus expression system. Microsomes were prepared and used as enzyme for in vitro inhibition testing in either of two formats measuring production of coenzyme A or tridecanoylglycerol product, respectively. All steps were performed at 21-23° C. All data for DGAT1 inhibition by test compounds were collected under conditions where product formation was linear with reaction time.
# Some assays were performed with inclusion of didecanoylglycerol in the pre-reaction incubation of test compounds and enzyme. […] Extraction of tridecanoylglycerol product was accomplished via addition of 30 uL Microscint-E (Perkin Elmer) and 2 hours of incubation (sealed). Plates were read on a Microbeta Microplate reader. Inhibition was normalized to controls containing DMSO or 10 uM {4-[4-(4-amino-7,7-dimethyl-7H-pyrimido[4,5-b][1,4]oxazin-6-yl)phenyl]cyclohexyl}acetic acid. IC50s were fitted using GraphPad Prism to a sigmoidal dose response.
# [2] = intravenous (tail vein), target dose 1 mg/kg, read-out: Rat IV AUC
# [3] = oral gavage, target dose 2 mg/kg, read-out: Rat PO AUC
Compound,"AUC [1, 2] [ng·h/mL]","AUC [1, 3] [ng·h/mL]",bioavailability [1] [%],IC50 (Human DGAT1) [µM]
"Cc1ccc(-n2ccc3cc(N4CCOc5ncnc(N)c5C4=O)ccc32)cn1 [WO12/162129, Ex 102, 4-amino-6-(1-(6-methylpyridin-3-yl)-1H-indol-5-yl)-7,8-dihydropyrimido[5,4-f][1,4]oxazepin-5(6H)-one]",975,2490,65.6,–
"Nc1ncnc2c1C(=O)N(c1ccc3c(ccn3-c3ccc(C(F)(F)F)cn3)c1)CCO2 [WO12/162129, Ex 88, 4-amino-6-(1-(5-(trifluoromethyl)pyridin-2-yl)-1H-indol-5-yl)-7,8-dihydropyrimido[5,4-f][1,4]oxazepin-5(6H)-one]",3780,1780,12.5,–
"CC(C)(O)c1ccc(-n2ccc3cc(N4CCOc5ncnc(N)c5C4=O)ccc32)cn1 [Example 38, 4-Amino-6-(1-(6-(2-hydroxypropan-2-yl)pyridin-3-yl)-1H-indol-5-yl)-7,8-dihydropyrimido[5,4-f][1,4]oxazepin-5(6H)-one]",2140,4020,89,0.029
"Nc1ncnc2c1C(=O)N(c1ccc3c(ccn3-c3ccc(C(F)(F)F)nc3)c1)CCO2 [WO12/162129, Ex 83, 4-amino-6-(1-(6-(trifluoromethyl)pyridin-3-yl)-1H-indol-5-yl)-7,8-dihydropyrimido[5,4-f][1,4]oxazepin-5(6H)-one]",3380,3860,30.4,–
"COC(C)(C)Cn1ccc2cc(N3CCOc4ncnc(N)c4C3=O)ccc21 [Example 39, 4-amino-6-(1-(2-methoxy-2-methylpropyl)-1H-indol-5-yl)-7,8-dihydropyrimido[5,4-f][1,4]oxazepin-5(6H)-one]",–,–,–,0.0423
CCOc1ncc(-n2ccc3cc(N4CCOc5ncnc(N)c5C4=O)ccc32)cn1 [Example 41],–,–,–,0.0238
"CC(C)(O)Cn1ccc2cc(N3CCOc4ncnc(N)c4C3=O)cc(C3CC3)c21 [Example 40, 4-amino-6-(7-cyclopropyl-1-(2-hydroxy-2-methylpropyl)-1H-indol-5-yl)-7,8-dihydropyrimido[5,4-f][1,4]oxazepin-5(6H)-one]",–,–,–,0.0075
"Cc1cnc(-n2ccc3cc(N4CCOc5ncnc(N)c5C4=O)cc(C4CC4)c32)nc1 [Example 37, 4-Amino-6-(7-cyclopropyl-1-(5-methylpyrimidin-2-yl)-1H-indol-5-yl)-7,8-dihydropyrimido[5,4-f][1,4]oxazepin-5(6H)-one]",11700,11600,54.6,0.0117
